Data set [1] concerns the target T1, hT1R2/hT1R3 sweet receptor (Homo sapiens, UniProt Q7RTX0+Q8TE23).
T1 construct: expressed in transfected cells; host or cells: HEK293 derivative stably expressing Gα15, clone S-9
T1 sequence (Q8TE23 20-839): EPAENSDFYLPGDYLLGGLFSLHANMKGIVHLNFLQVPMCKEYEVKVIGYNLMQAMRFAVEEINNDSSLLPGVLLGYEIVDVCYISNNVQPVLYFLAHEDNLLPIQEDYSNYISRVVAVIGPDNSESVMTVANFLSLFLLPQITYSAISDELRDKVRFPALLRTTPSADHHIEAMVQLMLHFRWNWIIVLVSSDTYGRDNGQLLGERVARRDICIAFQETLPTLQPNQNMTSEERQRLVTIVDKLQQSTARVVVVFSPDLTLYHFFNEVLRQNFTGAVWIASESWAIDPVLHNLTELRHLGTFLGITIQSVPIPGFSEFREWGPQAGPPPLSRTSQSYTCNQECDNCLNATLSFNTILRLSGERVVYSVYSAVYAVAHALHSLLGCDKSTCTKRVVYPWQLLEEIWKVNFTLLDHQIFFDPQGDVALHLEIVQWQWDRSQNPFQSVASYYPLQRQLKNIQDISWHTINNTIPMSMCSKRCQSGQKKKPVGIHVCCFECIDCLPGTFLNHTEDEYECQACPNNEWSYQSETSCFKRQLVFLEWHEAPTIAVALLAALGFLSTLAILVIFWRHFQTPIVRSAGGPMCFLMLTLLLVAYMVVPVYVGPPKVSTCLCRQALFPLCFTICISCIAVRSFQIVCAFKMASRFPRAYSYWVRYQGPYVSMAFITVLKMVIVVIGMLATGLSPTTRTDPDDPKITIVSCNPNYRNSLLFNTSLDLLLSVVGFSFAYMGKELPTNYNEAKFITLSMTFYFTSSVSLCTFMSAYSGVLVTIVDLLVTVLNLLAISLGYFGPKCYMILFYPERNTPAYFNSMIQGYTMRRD
T1 sequence (Q7RTX0 21-852): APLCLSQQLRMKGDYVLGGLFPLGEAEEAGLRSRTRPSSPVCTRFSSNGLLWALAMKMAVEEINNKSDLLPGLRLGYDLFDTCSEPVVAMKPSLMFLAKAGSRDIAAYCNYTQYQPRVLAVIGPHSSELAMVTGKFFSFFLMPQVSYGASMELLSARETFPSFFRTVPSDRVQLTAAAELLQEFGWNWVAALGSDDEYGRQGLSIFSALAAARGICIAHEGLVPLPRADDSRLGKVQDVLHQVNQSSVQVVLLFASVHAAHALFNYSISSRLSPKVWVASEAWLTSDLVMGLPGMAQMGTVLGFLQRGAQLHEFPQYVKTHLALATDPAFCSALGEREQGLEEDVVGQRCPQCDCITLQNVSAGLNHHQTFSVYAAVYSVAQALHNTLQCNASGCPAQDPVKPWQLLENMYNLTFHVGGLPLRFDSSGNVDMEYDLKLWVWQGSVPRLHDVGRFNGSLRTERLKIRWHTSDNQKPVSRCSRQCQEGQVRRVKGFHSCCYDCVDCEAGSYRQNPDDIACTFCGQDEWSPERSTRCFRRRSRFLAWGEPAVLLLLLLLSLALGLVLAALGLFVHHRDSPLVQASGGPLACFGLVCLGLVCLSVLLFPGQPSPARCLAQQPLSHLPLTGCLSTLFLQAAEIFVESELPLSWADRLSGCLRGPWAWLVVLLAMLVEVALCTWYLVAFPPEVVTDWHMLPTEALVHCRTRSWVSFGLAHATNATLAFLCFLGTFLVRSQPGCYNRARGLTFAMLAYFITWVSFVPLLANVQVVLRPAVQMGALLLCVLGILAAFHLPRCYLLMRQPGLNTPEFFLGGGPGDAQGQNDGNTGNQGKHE
The data set is described as follows: In vitro hT1R2/hT1R3 sweet taste receptor activation assay (FLIPR, dose response). The data set is classed as cell-based. To be noted: read-out: EC50 for activation of a hT1R2/hT1R3 sweet receptor expressed in an HEK293 cell line. Put shortly: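 Dose-response at 10 concentrations (60 nM–30 µM, duplicates) measured as Fluo-3AM calcium fluorescence on FLIPR in hT1R2/hT1R3 S-9 cells, in D-PBS at room temperature. Responses scaled to 400 mM D-fructose. EC50s from regression with all curve parameters floating.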

The target in data set [2] is T2, hT1R1/hT1R3 umami receptor (Homo sapiens, UniProt Q7RTX0+Q7RTX1).
T2 construct: expressed in transfected cells; host or cells: HEK293 derivative stably expressing Gα15, clone I-17, expression induced with mifepristone
T2 sequence (Q7RTX1 21-841): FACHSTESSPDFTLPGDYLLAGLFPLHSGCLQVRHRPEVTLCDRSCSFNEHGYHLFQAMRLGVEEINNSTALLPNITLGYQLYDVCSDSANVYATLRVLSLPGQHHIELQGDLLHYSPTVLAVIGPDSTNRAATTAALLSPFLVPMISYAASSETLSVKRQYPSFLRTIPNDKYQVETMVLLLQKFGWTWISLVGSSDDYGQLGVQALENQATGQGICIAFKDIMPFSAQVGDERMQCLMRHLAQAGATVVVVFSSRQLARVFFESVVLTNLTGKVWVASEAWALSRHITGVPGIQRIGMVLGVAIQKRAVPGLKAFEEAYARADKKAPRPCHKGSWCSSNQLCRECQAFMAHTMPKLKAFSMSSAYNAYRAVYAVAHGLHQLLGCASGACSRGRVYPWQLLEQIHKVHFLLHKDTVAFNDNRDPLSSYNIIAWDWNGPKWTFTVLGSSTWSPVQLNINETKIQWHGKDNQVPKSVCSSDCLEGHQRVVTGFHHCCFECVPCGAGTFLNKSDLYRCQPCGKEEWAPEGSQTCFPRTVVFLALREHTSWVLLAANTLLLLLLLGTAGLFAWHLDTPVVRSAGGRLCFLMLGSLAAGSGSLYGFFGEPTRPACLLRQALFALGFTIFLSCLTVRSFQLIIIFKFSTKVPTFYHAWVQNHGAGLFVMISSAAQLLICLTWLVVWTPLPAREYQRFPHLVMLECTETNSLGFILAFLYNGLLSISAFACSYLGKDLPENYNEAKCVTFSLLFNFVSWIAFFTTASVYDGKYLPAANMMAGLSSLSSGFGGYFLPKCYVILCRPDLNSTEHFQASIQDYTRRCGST
T2 sequence (Q7RTX0 21-852): T1 sequence (Q7RTX0 21-852)
As to the kind of experiment: In vitro hT1R1/hT1R3 umami taste receptor activation assay (FLIPR, dose response). The data set is classed as cell-based. To be noted: read-out: EC50 for activation of a hT1R1/hT1R3 umami receptor expressed in an HEK293 cell line.

Structures are written as SMILES. pEC50: −log10 of the molar value.

One may read the melting point as the temperature, or range, at which the solid turns liquid. Regarding `Cc1c(F)c(F)c(C(=O)NC2CCCCC2C)c(F)c1F` (stereo not shown) [Example 162, 2,3,5,6-tetrafluoro-4-methyl-N-(2-methylcyclohexyl)benzamide], the melting point is 202 to 204 °C. Further, in data set [1], the pEC50 was 6.41.

Take `O=C(Nc1ccc2c(c1)OCO2)N1Cc2ccccc2C1` [Example 174, N-(3,4-methylenedioxyphenyl)isoindoline-2-carboxamide]: the melting point fell in the range of 165 to 166 °C. The pEC50 in data set [1] was 5.98.

The compound `Cc1c(F)c(F)c(C(=O)NC2CCCCCC2)c(F)c1F` [Example 164, N-cycloheptyl-2,3,5,6-tetrafluoro-4-methylbenzamide] had a melting point of 164 to 165 °C. In data set [1], the pEC50 is 5.73.

For the compound `COc1ccc(CNC(=O)C(=O)NCCc2ccc(C)cn2)c(OC)c1` [Example 155, N-(2,4-Dimethoxybenzyl)-N′-(2-(5-methylpyridin-2-yl)ethyl)oxalamide], the melting point was 124 to 125 °C. The pEC50 in data set [2] was 7.15.

In turn, `Cc1c(F)c(F)c(C(=O)NC(C(C)C)C(C)C)c(F)c1F` [Example 165, N-(2,4-dimethylpentan-3-yl)-2,3,5,6-tetrafluoro-4-methylbenzamide] registered a melting point of 184 to 187 °C. In addition, in data set [1], the pEC50 was 6.09.

`Cc1ccc(CNC(=O)C(=O)NCCc2ccccn2)cc1` [Example 125, N-(4-methyl-benzyl)-N′-(2-pyridin-2-yl-ethyl)-oxalamide] registered a melting point of 152 to 154 °C. Also, the pEC50 in data set [2] is 6.39.

`CCCC(CCC)NC(=O)Nc1ccccc1Cl` [Example 158] returned a melting point of 135 to 136 °C. Moreover, the pEC50 in data set [2] is 6.43.

For `CCCC(CCC)NC(=O)c1ccc2nc(CCl)oc2c1` [Example 47, 2-Chloromethyl-benzooxazole-6-carboxylic acid (1-propyl-butyl)-amide], the melting point fell in the range of 137 to 137.5 °C. The pEC50 in data set [2] was 6.35.

`COc1ccc(CNC(=O)C(=O)NCCc2ccccn2)cc1C` [Example 135] gave a melting point of 145 to 147 °C. The pEC50 in data set [2] is 5.98.

For `O=C(N[C@@H]1CCCc2c(O)cccc21)c1cccc(Cl)c1O` (stereo in doubt) [Example 180, 3-Chloro-2-hydroxy-N-(5-hydroxy-1,2,3,4-tetrahydronaphthalen-1-yl)benzamide], the melting point lay within 148 to 151 °C. Besides, the pEC50 in data set [1] was 5.93.

`CCCC(CCC)NC(=O)c1ccc(SC)c(C)c1` [Example 51, N-(heptan-4-yl)-3-methyl-4-(methylthio)benzamide] showed a melting point of 129 to 131 °C. Further, the pEC50 in data set [2] is 6.92.

On to `Cc1cc(C)c2c(c1)C(NC(=O)c1conc1C)CCC2` (stereo not shown) [Example 166, N-(5,7-dimethyl-1,2,3,4-tetrahydronaphthalen-1-yl)-3-methylisoxazole-4-carboxamide], for which the melting point lay in the range of 57 to 58 °C. In addition, in data set [1], the pEC50 is 6.12.

In turn, `COc1ccc(CNC(=O)C(=O)NCCc2ccccn2)c(C)c1` [Example 126, N-(2-Methyl-4-methoxybenzyl)-N′-(2-pyridin-2-yl-ethyl)-oxalamide] came in with a melting point of 133 to 134 °C. Further, in data set [2], the pEC50 is 6.96.

Consider `COc1cccc2c1CCCC2NC(=O)c1cccc(Cl)c1O` (stereo not shown) [Example 167, 3-chloro-2-hydroxy-N-(5-methoxy-1,2,3,4-tetrahydronaphthalen-1-yl) benzamide], for which the melting point was 175 to 176 °C. Moreover, in data set [1], the pEC50 is 6.68.

Turning to `COc1ccc(CNC(=O)C(=O)NCCc2cc(C)ccn2)c(OC)c1` [Example 154, N-(2,4-Dimethoxybenzyl)-N′-(2-(4-methylpyridin-2-yl)ethyl)oxalamide], the melting point was 144 to 145 °C. For the same compound, in data set [2], the pEC50 is 5.79.

Compound `Cc1ccc(CNC(=O)C(=O)NCCc2ccccn2)c(C)c1` [Example 133, N-(2,4-dimethylbenzyl)-N′-(2-(pyridin-2-yl)ethyl)oxalamide] displayed a melting point of 148 to 149 °C. Moreover, the pEC50 in data set [2] is 7.15.

As for `COc1ccccc1CNC(=O)C(=O)NCCc1ccccn1` [Example 122, N-(2-Methoxy-benzyl)-N′-(2-pyridin-2-yl-ethyl)-oxalamide], the melting point is 118 to 119 °C. Also, the pEC50 in data set [2] is 6.47.

On to `COc1ccc2c(c1)CCC[C@H]2NC(=O)c1cccc(Cl)c1O` [Example 183, (R)-3-Chloro-2-hydroxy-N-(6-methoxy-1,2,3,4-tetrahydronaphthalen-1-yl)benzamide], for which the melting point was 111 to 113 °C. The pEC50 in data set [1] was 6.07.

The compound `Cc1cc(CNC(=O)C(=O)NCCc2ccccn2)c(C)o1` [Example 130, N-(2,5-Dimethyl-furan-3-ylmethyl)-N′-(2-pyridin-2-yl-ethyl)-oxalamide] had a melting point of 112 to 115 °C. For the same compound, the pEC50 in data set [2] is 6.00.

Compound `CCOc1ccc(NC(=O)NCCc2ccccn2)cc1` [Example 160, 1-(4-ethoxyphenyl)-3-(2-(pyridine-2-yl)ethyl)urea] returned a melting point of 163 to 164 °C. In addition, in data set [2], the pEC50 was 5.39.

Values taken from patent US20060045953A1 (priority 2004, published 2006).
